Laboratory results as given in US20210015793A1, “COMPOUNDS FOR TREATING CNS- AND NEURODEGENERATIVE DISEASES” (ETH ZURICH, priority 2018, published 2021).
Entries after “also recorded” stand apart in the source; their conditions may differ.

How the values were obtained:
[1] = tested on: Tg2576 AD mice; assay: Hippocampal neuronal cell bodies by direct binding assay with [125I]-labeled anti-NeuN antibody, Tg2576 mice subjected to CUMS; type: in vivo, mouse; conditions: 15-month-old Tg2576 mice, 3 months of CUMS with treatment, vs untreated stressed controls
Text: For a genetic model of familial AD (FAD), Tg2576 mice (Taconic Biosciences, Rensselaer, N.Y., USA) were used with neuron-specific overexpression of human APPSwe, i.e the Swedish mutation of APP695 isolated from a Swedish family with FAD featuring the double mutation K670N/M671L (Hsiao et al., Science 274, 99-103 (1996)). As a genetic model of tauopathy, the Tg-TauP301L mice (Model 2508, Taconic Biosciences, Rensselaer, N.Y., USA) with neuron-specific expression of the most common FTDP-17 (frontotemporal dementia and parkinsonism linked to chromosome 17) mutation (Lewis et al., Nature Genetics 25, 402-405 (2000)) were used. […]
Neuronal cell loss and hyperphosphorylated PHF Tau were determined in hippocampi of 15 months-old Tg2576 mice, which were treated without or with Compound-1 and Compound-4 for three months during the neurodegeneration-enhancing CUMS (chronic unpredictable mild stress) protocol. Neuronal cell loss was determined with crude homogenates of dissected hippocampi by direct binding assay with the neuron-specific [125]-labeled anti-NeuN antibody (MAB377, clone A60, EMD Millipore, Merck KGaA, Darmstadt, Germany). Similarly, the neuronal cell loss-causing PHF tau hyperphosphorylation was quantified with [125]-labeled AT8 antibody. […]

[2] = tested on: male B6 mice; assay: Aging-induced deterioration of male sperm quality in B6 mice; type: in vivo, mouse; conditions: 18-month-old male B6 mice, 15 months treatment; for epididymal sperm count / sperm vitality (eosin-nigrosin staining) / total sperm motility: 8 mg/kg/d in drinking water
Description: Sperm count, and motility were determined by microscopic semen analysis of male B6 mice at an age of 3 months and 18 months similarly as described (Komori et al., Reprod. Med. Biol. 5, 195-200, 2006). Sperm cells were isolated from male B6 mice from the epididymis as described (Esposito et al., Proc. Nat. Acad. Sci. U.S.A. 101, 2993-2998, 2004). Sperm concentration was determined with a Neubauer hemocytometer. Percentage of sperm motility was determined with a 10 microl sample loaded onto a clean slide glass and covered with a coverslip. Sperm motility was evaluated under positive phase-contrast microscopy at a total magnification of ×400, and graded according to the WHO criteria (Komori et al., Reprod. Med. Biol. 5, 195-200, 2006), i.e. percentage of motile sperm cells was counted, and the percentage of progressive and not progressive sperm motility was determined. At least 300 spermatozoa were evaluated. Spermatozoa viability was determined by eosin-nigrosine staining technique. A drop of spermatozoa suspension in PBS was mixed with one drop of aqueous eosin Y solution (1%), and incubated for 15 s. Thereafter, two drops of 10% aqueous nigrosine solution were added and mixed. An aliquot of this mixture was transferred to a glass slide, a thin smear was made, and air dried. Stained spermatozoa were examined under a light microscope, and the percentage of live sperm cells was determined. Live sperm cells appear white whereas dead sperm cells are coloured pink. Treatment of male B6 mice with Compound-1 and Compound-1F (8 mg/kg/d in drinking water) was started at an age of 3 months and continued until the end of the observation period at an age of 18 months.

| Compound | hippocampal neuronal loss (anti-NeuN antibody binding) [1] | decrease in progressive sperm motility [2] | epididymal sperm count [2] | sperm vitality (eosin-nigrosin staining) [2] | total sperm motility [2] |
| --- | --- | --- | --- | --- | --- |
| O=C(C1=C(O)C(c2ccccc2)N(c2ccc3c(c2)OCO3)C1=O)C1CC1 (stereo not shown) [Compound-1, 1-(1,3-benzodioxol-5-yl)-4-(cyclopropane-carbonyl)-3-hydroxy-2-phenyl-2H-pyrrol-5-one] | retarded hippocampal neuronal loss; also recorded: significantly retarded the loss of hippocampal neurons | largely prevented | retarded the aging-induced decrease in epididymal sperm count | maintained sperm vitality | improved total sperm motility |
| O=C(C1=C(O)C(c2ccc(F)cc2)N(c2ccc3c(c2)OCO3)C1=O)C1CC1 (stereo not shown) [Compound-1F, 1-(1,3-Benzodioxol-5-yl)-4-(cyclopropanecarbonyl)-2-(4-fluorophenyl)-3-hydroxy-2H-pyrrol-5-one] | retarded hippocampal neuronal loss | largely prevented | retarded the aging-induced decrease in epididymal sperm count | maintained sperm vitality | improved total sperm motility |
